Test results published in patent publication US20250009737A1, “COMPOUNDS AND METHODS FOR THE TARGETED DEGRADATION OF ANDROGEN RECEPTOR” (Arvinas Operations, Inc., priority 2023, published 2025).
pIC50: −log10 of the molar value. Read-outs that look alike come from different tables or passages of the source.

Assays:
Assay type in all cases: in vitro ADME
CYP1A2 mRNA = CYP1A2 mRNA induction in cryopreserved human hepatocytes; settings: 0.03-30 μM; for CYP1A2 mRNA Fold induction: human hepatocytes, 48 hours
Method: (§1) The induction potential of Compound A on CYP enzymes was assessed in cryopreserved human hepatocytes from three donors. Following treatment for with Compound A at concentrations of 0.03-30 μM for 48 hours, mRNA levels for CYP1A2, 2B6, 2C8, 2C9, 2C19, and 3A4 were determined by semiquantitative real-time polymerase chain reaction (PCR). Test article concentrations during 24-hour incubation were determined. The potential of Compound A to cause direct and time-dependent inhibition (TDI) of the activities of CYP1A2, 2B6, 2C8, 2C9, 2C19, 2D6, and 3A4 was evaluated in pooled human liver microsomes (HLM) at 0.2-15 μM. Probe substrate concentrations around Km were used for direction inhibition and initial TDI assays. For TDI assay, Compound A was pre-incubated with pooled HLM with and without NADPH for 30 minutes prior to incubation with a single concentration of probe substrate.

CYP2C8 mRNA = CYP2C8 mRNA induction in cryopreserved human hepatocytes; settings: for CYP2C8 mRNA Fold induction: human hepatocytes
CYP2C9 = target: T1, CYP2C9 (Homo sapiens, UniProt P11712); assay: Direct and time-dependent CYP2C9 inhibition in pooled human liver microsomes; settings: pooled HLM, substrate Diclofenac 5 μM
T1 construct: evaluated in pooled human liver microsomes (HLM); from tissue; host or cells: pooled human liver microsomes
Method: as §1

OCT2 = target: T2, OCT2 (Homo sapiens, UniProt O15244); assay: OCT2 uptake transporter inhibition in MDCKII or HEK293 cells; settings: substrate Metformin (10 μM)
T2 construct: expressed in transfected cells; host or cells: MDCKII or HEK293
Method: (§2) In addition, the inhibition potential against efflux transporters (P-glycoprotein (Pgp) and breast cancer resistance protein (BCRP)) and uptake transporters (MATE1, MATE2-K, OATP1B1, OATP1B3, OAT1, OAT3, and OCT2) was assessed using single transporter over-expressed cell monolayers (MDCK II or HEK293) or inside-out vesicles.
(§3) The potential of Compound A to inhibit Pgp or BCRP was tested for bidirectional transport of the probe substrates in Pgp or BCRP-expressed MDCKII and control monolayers at Compound A concentrations of 0.07-5 μM. Pgp and BCR inhibition were tested in inside-out membrane vesicles prepared from HEK293 overexpressing human Pgp and BCR at concentrations of 0.01-9 μM Compound A in the presence of 4 mM MgATP or MgAMP.

MATE2-K = target: T3, MATE2-K (Homo sapiens, UniProt Q86VL8); assay: MATE2-K uptake transporter inhibition in MDCKII or HEK293 cells; settings: substrate Metformin (10 μM)
T3 construct: expressed in transfected cells; host or cells: MDCKII or HEK293
Method: as §2, §3

OATP1B3 [1] = target: T4, OATP1B3 (Homo sapiens, UniProt Q9NPD5); assay: OATP1B3 uptake transporter substrate assay; parameters: expressed in transfected cells; settings: OATP1B3-expressing vs control cell
T4 sequence (Q9NPD5 1-702): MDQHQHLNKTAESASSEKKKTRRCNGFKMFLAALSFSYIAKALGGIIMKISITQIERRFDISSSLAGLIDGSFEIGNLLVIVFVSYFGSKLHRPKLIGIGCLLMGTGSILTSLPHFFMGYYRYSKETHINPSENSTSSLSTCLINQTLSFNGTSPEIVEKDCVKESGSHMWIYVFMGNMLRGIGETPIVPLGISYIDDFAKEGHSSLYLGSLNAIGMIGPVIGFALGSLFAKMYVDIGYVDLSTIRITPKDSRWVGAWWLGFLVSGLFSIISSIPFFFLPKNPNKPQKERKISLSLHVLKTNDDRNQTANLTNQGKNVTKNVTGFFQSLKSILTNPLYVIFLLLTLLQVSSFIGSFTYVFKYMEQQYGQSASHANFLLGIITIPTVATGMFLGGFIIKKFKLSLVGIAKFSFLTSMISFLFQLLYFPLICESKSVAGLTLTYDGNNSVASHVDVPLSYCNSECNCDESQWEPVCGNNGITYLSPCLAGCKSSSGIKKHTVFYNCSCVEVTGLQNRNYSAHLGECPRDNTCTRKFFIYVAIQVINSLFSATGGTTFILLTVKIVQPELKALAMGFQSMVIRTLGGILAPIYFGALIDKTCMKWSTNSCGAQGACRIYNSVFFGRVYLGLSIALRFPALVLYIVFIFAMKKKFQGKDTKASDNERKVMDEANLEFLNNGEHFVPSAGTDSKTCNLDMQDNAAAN
Method: The potential of Compound A to act as an efflux transporter Pgp and BCRP as well as uptake transporter OATP1B1 and 1B3 were assessed in Caco-2 and single transporter over-expressed HEK29 cells, respectively.
The potential of Compound A to act as a substrate for Pgp and BCRP was examined in Caco-2 cells at the concentrations of 0.075, 0.75, 3.75 and 7.5 μM containing 1% of BSA. After 120 min incubation, the bidirectional permeability of Compound A was determined by LC-MS/MS. The involvement of Compound A as a substrate of OATP1B1 and OATP1B3 was assessed in the uptake transporter substrate assays at 4 concentrations (0.1, 0.5, 1 and 5 μM). Compound A in cell lysates was determined by LC-MS/MS.

OATP1B3 [2] = target: T4, OATP1B3; assay: OATP1B3 uptake transporter inhibition in MDCKII or HEK293 cells; parameters: expressed in transfected cells; host or cells: MDCKII or HEK293; settings: substrate Rosuvastatin (1 μM)
Method: as §2, §3

T1 sequence (P11712 whole entry): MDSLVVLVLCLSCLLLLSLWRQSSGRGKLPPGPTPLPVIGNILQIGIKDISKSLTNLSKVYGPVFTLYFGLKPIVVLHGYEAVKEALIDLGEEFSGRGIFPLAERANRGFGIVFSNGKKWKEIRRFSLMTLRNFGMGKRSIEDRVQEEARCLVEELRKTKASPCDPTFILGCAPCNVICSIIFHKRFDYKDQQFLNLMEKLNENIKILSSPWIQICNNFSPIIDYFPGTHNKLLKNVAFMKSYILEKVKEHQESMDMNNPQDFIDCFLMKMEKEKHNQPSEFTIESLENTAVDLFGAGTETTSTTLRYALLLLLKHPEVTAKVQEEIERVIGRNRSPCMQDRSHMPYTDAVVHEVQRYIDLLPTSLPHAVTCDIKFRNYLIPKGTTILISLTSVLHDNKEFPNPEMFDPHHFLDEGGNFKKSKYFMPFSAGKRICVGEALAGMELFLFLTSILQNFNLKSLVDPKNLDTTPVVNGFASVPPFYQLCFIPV
T2 sequence (O15244 whole entry): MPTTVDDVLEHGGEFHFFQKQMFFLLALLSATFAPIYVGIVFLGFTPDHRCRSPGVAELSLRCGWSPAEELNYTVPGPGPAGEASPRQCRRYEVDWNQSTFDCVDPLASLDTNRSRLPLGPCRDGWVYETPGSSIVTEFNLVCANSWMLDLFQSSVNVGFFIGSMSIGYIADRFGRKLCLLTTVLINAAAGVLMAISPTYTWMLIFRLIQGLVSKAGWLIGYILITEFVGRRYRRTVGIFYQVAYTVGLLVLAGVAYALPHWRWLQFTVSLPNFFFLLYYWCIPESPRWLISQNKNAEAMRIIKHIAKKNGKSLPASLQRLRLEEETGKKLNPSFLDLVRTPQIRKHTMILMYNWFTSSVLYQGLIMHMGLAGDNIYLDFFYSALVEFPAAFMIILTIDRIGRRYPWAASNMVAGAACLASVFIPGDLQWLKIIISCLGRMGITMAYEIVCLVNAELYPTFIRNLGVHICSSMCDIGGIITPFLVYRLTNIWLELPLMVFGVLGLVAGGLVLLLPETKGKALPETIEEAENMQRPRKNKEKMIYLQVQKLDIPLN
T3 sequence (Q86VL8 1-566 isoform Q86VL8-3): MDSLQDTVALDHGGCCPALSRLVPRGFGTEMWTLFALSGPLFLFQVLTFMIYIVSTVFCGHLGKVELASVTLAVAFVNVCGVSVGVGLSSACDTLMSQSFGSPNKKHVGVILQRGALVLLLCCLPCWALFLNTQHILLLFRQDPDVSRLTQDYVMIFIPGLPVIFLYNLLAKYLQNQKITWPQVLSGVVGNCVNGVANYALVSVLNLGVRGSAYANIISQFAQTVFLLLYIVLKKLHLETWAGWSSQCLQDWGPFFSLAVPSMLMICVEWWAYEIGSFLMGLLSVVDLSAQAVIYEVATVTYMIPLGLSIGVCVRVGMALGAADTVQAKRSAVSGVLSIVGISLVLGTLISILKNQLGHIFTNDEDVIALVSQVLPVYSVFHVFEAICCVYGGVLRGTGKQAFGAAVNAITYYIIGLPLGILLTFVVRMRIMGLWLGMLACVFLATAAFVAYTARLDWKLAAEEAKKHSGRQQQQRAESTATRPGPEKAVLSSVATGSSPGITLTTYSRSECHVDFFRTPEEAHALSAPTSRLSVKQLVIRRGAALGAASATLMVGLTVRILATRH

CYP1A2 mRNA Fold induction (CYP1A2 mRNA; Donor 1): <2 Fold | CYP1A2 mRNA Fold induction (CYP1A2 mRNA; Donor 2): <2 Fold | CYP1A2 mRNA Fold induction (CYP1A2 mRNA; Donor 3): <2 Fold | Induction of CYP1A2 mRNA (CYP1A2 mRNA; all three donors of human hepatocytes): did not induce | CYP2C8 mRNA Fold induction (CYP2C8 mRNA; Donor 1, 0.03-30 μM, 48 hours): <2 Fold | CYP2C8 mRNA Fold induction (CYP2C8 mRNA; Donor 2, 0.03-30 μM, 48 hours): <2 Fold | CYP2C8 mRNA induction, % PC (CYP2C8 mRNA; Donor 3, % of positive control response, at 0.1 μM): 28 % PC | CYP2C8 mRNA Fold induction (CYP2C8 mRNA; Donor 3, maximal, at 0.1 μM): 3.1 Fold | pIC50 (CYP2C9; read-out: IC50, 30 min Pre-incubation): < 4.82 | pIC50 (CYP2C9; read-out: IC50, No Pre-incubation): < 4.82 | pIC50 (OCT2): < 5.43 | pIC50 (MATE2-K): < 5.43 | Fold accumulation, OATP1B3 (OATP1B3 [1]): < 2 fold | Substrate for OATP1B3 (OATP1B3 [1]; 0.1, 0.5, 1 and 5 μM): not a substrate | pIC50 (OATP1B3 [2]): < 5.43
Structure (SMILES): COc1cc(O[C@H]2C(C)(C)[C@H](NC(=O)c3ccc(N4CCC(CN5CCN(c6ccc(C(=O)N[C@H]7CCC(=O)NC7=O)c(F)c6)CC5)CC4)cc3)C2(C)C)ccc1C#N [Compound A, 4-(4-((1-(4-(((1R,3R)-3-(4-cyano-3-methoxyphenoxy)-2,2,4,4-tetramethylcyclobutyl)carbamoyl)phenyl)piperidin-4-yl)methyl)piperazin-1-yl)-N—((S)-2,6-dioxopiperidin-3-yl)-2-fluorobenzamide]
